Test results reported in PubChem BioAssay AID1963842 (Molecular Pharmacology Branch, DTP, NCI, 2024).

Tested on: 677734-321-R-J1-PDC complex spheroid viability
Test: Anticancer human tumor 677734-321-R-J1-PDC patient-derived soft tissue sarcoma cell line growth inhibition [POLQ]
Settings: for IC50: curve of first compound; for viability, T/C: stronger effect = lower value
Description: Multicellular complex tumor spheroid response to Polymerase (POL) inhibitors (novobiocin, ART-558, RP6685) in combination with a variety of drugs and investigational agents in selected tumor cell lines
The POL inhibitors (novobiocin, ART-558, and RP6685) were evaluated both individually and in combination with standard of care and investigational anticancer small molecules within a complex spheroid model of solid tumors. . Complex spheroids include a stromal component modeled by human endothelial cells (HUVEC) and fibroblasts modeled by human mesenchymal stem cells (MSCs). The concentration ranges selected for each drug and investigational agent were based upon clinically achievable concentrations if the clinical Cmax of the agent was known.
Compounds. The drugs and investigational agents: novobiocin (NSC847541), ART-558 (NSC835418), RP-6685 (NSC848927), peposertib (NSC802822), ceralasertib (NSC780249), elimusertib (NSC800525), camonsertib (NSC841442), AZD-1390 (NSC803789), olaparib (NSC753686), talazoparib (NSC767125), rucaparib (NSC756644), sotorasib (NSC818433), MRTX-1133 (NSC836407), SN-38 (NSC673596), topotecan (NSC609699), epotoside (NSC141540), doxorubicin (NSC123127), gemcitabine (NSC613327), 5-fluorouracil (NSC19893), paclitaxel (NSC125973), vemurafenib (NSC761431), MSA-2 (NSC828583), SN-011 (NSC837082), adavosertib (NSC754352), prexasertib (NSC758257), carboplatin (NSC241240) and oxaliplatin (NSC266046), were obtained from the National Cancer Institute (NCI) Developmental Therapeutics Program Chemical Repository (21). The FDA-approved anticancer drug set is available from the Developmental Therapeutics Program at https://dtp.cancer.gov/organization/dscb/obtaining/. […] The stock solutions were prepared in dimethyl sulfoxide (DMSO, Sigma-Aldrich, St. Louis, MO, cat. D2650), except for the platinum compounds which were prepared in saline (Quality Biological, Gaithersburg, MD, cat. 114-055-101), at 800-fold the tested concentration and stored at -70 degrees C prior to their use. All drugs and investigational agents were tested over a range starting from a high concentration at or near the clinical Cmax and decreasing in half-log increments. If the clinical Cmax for an agent had not been determined, the highest concentration tested was 10 microM, except for SN-38, which was tested at a high concentration of 1 microM.
Cell Culture. All cells were maintained in an incubator at 37 degrees C and 5% CO2 with 95% humidity. The PDC lines were cultured according to standard operating procedures established by the NCI PDMR (https://pdmr.cancer.gov). Table 3 of the manuscript, lists the cell lines along with the number of the three cell types plated to form the mct-spheroids and media for tumor cell growth. After thawing, all PDC lines, except 997537-175-T-J1-PDC and 415267-285-R-J2-PDC, were cultured in Matrigel-coated flasks prepared with a working solution of 1X Ham's F-12 nutrient mix, without supplementation (Thermo Fisher Scientific, cat. 11765054), 100 U/mL penicillin-streptomycin (Thermo Fisher Scientific, cat. 15140122), and 2.5% Matrigel (Corning Inc., Corning, NY, cat. 354248) for the first three passages. The two PDC lines 997537-175-T-J1-PDC and 415267-285-R-J2-PDC were cultured on uncoated flasks. The 857933-349-R-J2-PDC line was cultured in 6C/Colon 1B media containing advanced DMEM/F-12 (Thermo Fisher Scientific, cat. 12634028), 10 mM HEPES (Thermo Fisher Scientific, cat. 15630080), 1X GlutaMAX supplement (Thermo Fisher Scientific, cat. 35050061), 0.1 mg/mL primocin (InvivoGen, San Diego, CA, cat. ant-pm-2), 10% defined fetal bovine serum, heat inactivated (HyClone Laboratories Inc., Logan, UT, cat. SH30070.03HI), 50% L-WRN conditioned media (ATCC, cat. CRL-3276), 1.25 mM N-Acetyl-L-cysteine (Sigma-Aldrich, cat. A9165), 10 mM nicotinamide (Sigma-Aldrich, cat. N0636), 1X B-27 supplement (Thermo Fisher Scientific, cat. 17504044), 1X N-2 supplement (Thermo Fisher Scientific, cat. […]
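Further: spheroids exposed to compounds for one week.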
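Wherever viability, T/C is given: 100% = vehicle DMSO treated spheroids.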

CC(=O)O[C@H]1C(=O)[C@@]2(C)[C@H]([C@H](OC(=O)c3ccccc3)[C@]3(O)C[C@H](OC(=O)[C@H](O)[C@@H](NC(=O)c4ccccc4)c4ccccc4)C(C)=C1C3(C)C)[C@]1(OC(C)=O)CO[C@@H]1C[C@@H]2O + COC1C(OC(N)=O)C(O)C(Oc2ccc3c(O)c(NC(=O)c4ccc(O)c(CC=C(C)C)c4)c(=O)oc3c2C)OC1(C)C
IC50 (second compound 0.0316 µM): < 0.00949 µM | IC50 (second compound 0.1 µM): < 0.00949 µM | IC50 (second compound 0.316 µM): < 0.00949 µM | IC50 (second compound 1 µM): < 0.00949 µM | IC50 (second compound 3.16 µM): < 0.00949 µM | IC50 (second compound 10 µM): < 0.00949 µM | viability, T/C (second compound 0.0316 µM, first compound 0.00949 µM): 44.6% | viability, T/C (second compound 0.0316 µM, first compound 0.03 µM): 22.1% | viability, T/C (second compound 0.0316 µM, first compound 0.0949 µM): 16.2% | viability, T/C (second compound 0.0316 µM, first compound 0.3 µM): 16.4% | viability, T/C (second compound 0.0316 µM, first compound 0.949 µM): 13.5% | viability, T/C (second compound 0.0316 µM, first compound 3 µM): 19.1% | viability, T/C (second compound 0.1 µM, first compound 0.00949 µM): 41.2% | viability, T/C (second compound 0.1 µM, first compound 0.03 µM): 23.5% | viability, T/C (second compound 0.1 µM, first compound 0.0949 µM): 20.2% | viability, T/C (second compound 0.1 µM, first compound 0.3 µM): 14.9% | viability, T/C (second compound 0.1 µM, first compound 0.949 µM): 13.6% | viability, T/C (second compound 0.1 µM, first compound 3 µM): 17.5% | viability, T/C (second compound 0.316 µM, first compound 0.00949 µM): 36.8% | viability, T/C (second compound 0.316 µM, first compound 0.03 µM): 21.3% | viability, T/C (second compound 0.316 µM, first compound 0.0949 µM): 16.8% | viability, T/C (second compound 0.316 µM, first compound 0.3 µM): 11.9% | viability, T/C (second compound 0.316 µM, first compound 0.949 µM): 13.9% | viability, T/C (second compound 0.316 µM, first compound 3 µM): 16.9% | viability, T/C (second compound 1 µM, first compound 0.00949 µM): 37.8% | viability, T/C (second compound 1 µM, first compound 0.03 µM): 22.4% | viability, T/C (second compound 1 µM, first compound 0.0949 µM): 17.8% | viability, T/C (second compound 1 µM, first compound 0.3 µM): 15.2% | viability, T/C (second compound 1 µM, first compound 0.949 µM): 14% | viability, T/C (second compound 1 µM, first compound 3 µM): 18% | viability, T/C (second compound 3.16 µM, first compound 0.00949 µM): 37.8% | viability, T/C (second compound 3.16 µM, first compound 0.03 µM): 21.1% | viability, T/C (second compound 3.16 µM, first compound 0.0949 µM): 16.2% | viability, T/C (second compound 3.16 µM, first compound 0.3 µM): 15.4% | viability, T/C (second compound 3.16 µM, first compound 0.949 µM): 13.5% | viability, T/C (second compound 3.16 µM, first compound 3 µM): 17.7% | viability, T/C (second compound 10 µM, first compound 0.00949 µM): 45.5% | viability, T/C (second compound 10 µM, first compound 0.03 µM): 23.1% | viability, T/C (second compound 10 µM, first compound 0.0949 µM): 16.2% | viability, T/C (second compound 10 µM, first compound 0.3 µM): 13.2% | viability, T/C (second compound 10 µM, first compound 0.949 µM): 14.3% | viability, T/C (second compound 10 µM, first compound 3 µM): 16.5%

O=c1[nH]cc(F)c(=O)[nH]1 + COC1C(OC(N)=O)C(O)C(Oc2ccc3c(O)c(NC(=O)c4ccc(O)c(CC=C(C)C)c4)c(=O)oc3c2C)OC1(C)C
IC50 (second compound 0.0316 µM): 2.78 µM | IC50 (second compound 0.1 µM): 3.13 µM | IC50 (second compound 0.316 µM): 2.91 µM | IC50 (second compound 1 µM): 3.15 µM | IC50 (second compound 3.16 µM): 6.55 µM | IC50 (second compound 10 µM): 2.87 µM | viability, T/C (second compound 0.0316 µM, first compound 0.0316 µM): 113% | viability, T/C (second compound 0.0316 µM, first compound 0.1 µM): 98.6% | viability, T/C (second compound 0.0316 µM, first compound 0.316 µM): 106% | viability, T/C (second compound 0.0316 µM, first compound 1 µM): 94.8% | viability, T/C (second compound 0.0316 µM, first compound 3.16 µM): 44.4% | viability, T/C (second compound 0.0316 µM, first compound 10 µM): 40.5% | viability, T/C (second compound 0.1 µM, first compound 0.0316 µM): 111% | viability, T/C (second compound 0.1 µM, first compound 0.1 µM): 103% | viability, T/C (second compound 0.1 µM, first compound 0.316 µM): 103% | viability, T/C (second compound 0.1 µM, first compound 1 µM): 91.9% | viability, T/C (second compound 0.1 µM, first compound 3.16 µM): 49.3% | viability, T/C (second compound 0.1 µM, first compound 10 µM): 43.2% | viability, T/C (second compound 0.316 µM, first compound 0.0316 µM): 107% | viability, T/C (second compound 0.316 µM, first compound 0.1 µM): 102% | viability, T/C (second compound 0.316 µM, first compound 0.316 µM): 108% | viability, T/C (second compound 0.316 µM, first compound 1 µM): 98.5% | viability, T/C (second compound 0.316 µM, first compound 3.16 µM): 46.2% | viability, T/C (second compound 0.316 µM, first compound 10 µM): 37.1% | viability, T/C (second compound 1 µM, first compound 0.0316 µM): 117% | viability, T/C (second compound 1 µM, first compound 0.1 µM): 101% | viability, T/C (second compound 1 µM, first compound 0.316 µM): 112% | viability, T/C (second compound 1 µM, first compound 1 µM): 91.6% | viability, T/C (second compound 1 µM, first compound 3.16 µM): 50.2% | viability, T/C (second compound 1 µM, first compound 10 µM): 41.1% | viability, T/C (second compound 3.16 µM, first compound 0.0316 µM): 106% | viability, T/C (second compound 3.16 µM, first compound 0.1 µM): 101% | viability, T/C (second compound 3.16 µM, first compound 0.316 µM): 121% | viability, T/C (second compound 3.16 µM, first compound 1 µM): 83.7% | viability, T/C (second compound 3.16 µM, first compound 3.16 µM): 63.1% | viability, T/C (second compound 3.16 µM, first compound 10 µM): 42.8% | viability, T/C (second compound 10 µM, first compound 0.0316 µM): 105% | viability, T/C (second compound 10 µM, first compound 0.1 µM): 107% | viability, T/C (second compound 10 µM, first compound 0.316 µM): 115% | viability, T/C (second compound 10 µM, first compound 1 µM): 89.7% | viability, T/C (second compound 10 µM, first compound 3.16 µM): 47.5% | viability, T/C (second compound 10 µM, first compound 10 µM): 43.3%
